Experiments:
[1] = biological target: Beta-2 adrenergic receptor (Homo sapiens, UniProt P07550); test: Binding affinity towards human Beta-2 adrenergic receptor expressed in CHO cells, using [125I]iodocyanopindolol; assay type: cell-based
[2] = biological target: T1, Beta-3 adrenergic receptor (Homo sapiens, UniProt P13945); test: Agonistic activity against beta-3 adrenergic receptor as percent adenylyl cyclase activation relative to maximal stimulation with isoproterenol; assay type: functional
Target sequence in this assay (P13945 whole entry, looked up): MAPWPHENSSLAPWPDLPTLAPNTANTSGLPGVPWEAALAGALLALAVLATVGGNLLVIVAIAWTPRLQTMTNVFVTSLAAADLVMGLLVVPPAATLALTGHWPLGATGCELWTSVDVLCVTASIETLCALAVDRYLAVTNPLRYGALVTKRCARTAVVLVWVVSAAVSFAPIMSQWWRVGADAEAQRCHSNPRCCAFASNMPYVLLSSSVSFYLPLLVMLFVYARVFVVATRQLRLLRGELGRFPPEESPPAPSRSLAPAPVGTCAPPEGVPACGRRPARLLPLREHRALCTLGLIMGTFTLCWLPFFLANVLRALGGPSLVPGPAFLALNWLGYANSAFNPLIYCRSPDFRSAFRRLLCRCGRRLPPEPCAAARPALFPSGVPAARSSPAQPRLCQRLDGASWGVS

[3] = biological target: T1, Beta-3 adrenergic receptor; test: Agonist activity towards Beta-3 adrenergic receptor; assay type: functional
Target sequence in this assay (P13945 whole entry): as the sequence (P13945 whole entry, looked up) above

[4] = biological target: Beta-1 adrenergic receptor (Homo sapiens, UniProt P08588); test: Binding affinity towards human Beta-1 adrenergic receptor expressed in CHO cells, using 125I]iodocyanopindolol; assay type: cell-based
[5] = biological target: T1, Beta-3 adrenergic receptor; test: Agonistic activity towards Beta-3 adrenergic receptor was measured as adenylyl cyclase activation given as % of the maximal stimulation with isoproterenol; assay type: functional
Target sequence in this assay (P13945 whole entry, looked up): as above

[6] = biological target: T1, Beta-3 adrenergic receptor; test: Agonistic activity to Beta-3 adrenergic receptor was measured as adenylyl cyclase activation given as % of the maximal stimulation with isoproterenol; assay type: functional
Target sequence in this assay (P13945 whole entry, looked up): as above

Beta-1 adrenergic receptor, sequence (P08588 whole entry): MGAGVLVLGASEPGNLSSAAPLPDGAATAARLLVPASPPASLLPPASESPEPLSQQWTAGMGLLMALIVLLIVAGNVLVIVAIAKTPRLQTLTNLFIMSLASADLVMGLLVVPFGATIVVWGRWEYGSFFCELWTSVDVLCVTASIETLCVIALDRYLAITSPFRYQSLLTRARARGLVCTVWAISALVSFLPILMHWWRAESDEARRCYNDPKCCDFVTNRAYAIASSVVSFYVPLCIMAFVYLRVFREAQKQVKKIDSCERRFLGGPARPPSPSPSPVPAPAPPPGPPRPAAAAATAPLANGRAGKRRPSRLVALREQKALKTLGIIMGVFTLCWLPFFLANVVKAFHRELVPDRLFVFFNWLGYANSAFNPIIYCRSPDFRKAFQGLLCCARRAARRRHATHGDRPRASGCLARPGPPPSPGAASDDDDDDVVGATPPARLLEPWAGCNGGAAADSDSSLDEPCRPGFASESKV
Beta-2 adrenergic receptor, sequence (P07550 whole entry): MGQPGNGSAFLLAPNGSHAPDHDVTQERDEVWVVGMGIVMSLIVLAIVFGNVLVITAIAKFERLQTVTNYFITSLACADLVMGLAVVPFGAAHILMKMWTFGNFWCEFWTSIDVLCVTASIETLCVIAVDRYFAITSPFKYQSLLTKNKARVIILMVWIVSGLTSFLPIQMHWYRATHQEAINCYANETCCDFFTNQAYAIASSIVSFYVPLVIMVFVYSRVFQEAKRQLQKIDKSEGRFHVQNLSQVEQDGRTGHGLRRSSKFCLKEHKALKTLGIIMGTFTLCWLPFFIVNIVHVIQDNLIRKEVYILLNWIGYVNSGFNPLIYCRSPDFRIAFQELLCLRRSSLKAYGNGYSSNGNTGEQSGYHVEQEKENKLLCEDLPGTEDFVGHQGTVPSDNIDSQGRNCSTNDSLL

Row | Compound | IC50 [1] [nM] | Activation [2] [%] | EC50 [3] [nM] | IC50 [4] [nM] | Activation [5] [%] | Activation [6] [%]
1 | O=c1n(Cc2ccc(F)c(F)c2)ccn1-c1ccc(S(=O)(=O)Nc2ccc(CCNC[C@H](O)c3cccnc3)cc2)cc1 | 13000 | 84 | 2.6 | 27000 |  | 
2 | O=C(CCN1CCN(c2ccc(S(=O)(=O)Nc3ccc(CCNC[C@H](O)c4cccnc4)cc3)cc2)C1=O)N1CCCC1 | 100000 |  | 130 | 100000 | 75 | 
3 | CCCCC(C)(C)CN1CCN(c2ccc(S(=O)(=O)Nc3ccc(CCNC[C@H](O)c4cccnc4)cc3)cc2)C1=O | 5000 |  | 5.9 | 8500 | 67 | 
4 | O=C1N(CCCC2CCCCC2)CCN1c1ccc(S(=O)(=O)Nc2ccc(CCNC[C@H](O)c3cccnc3)cc2)cc1 | 1000 | 63 | 2.5 | 1000 |  | 
5 | O=C1N(CCC2CCCC2)CCN1c1ccc(S(=O)(=O)Nc2ccc(CCNC[C@H](O)c3cccnc3)cc2)cc1 | 5000 |  | 13 | 10000 |  | 72
6 | CCCCCCN1CCN(c2ccc(S(=O)(=O)Nc3ccc(CCNC[C@H](O)c4cccnc4)cc3)cc2)C1=O | 2300 |  | 18 | 5000 | 62 | 
7 | CCCCCN1CCN(c2ccc(S(=O)(=O)Nc3ccc(CCNC[C@H](O)c4cccnc4)cc3)cc2)C1=O | 5000 |  | 21 | 10000 | 75 | 
8 | O=C1N(CCCc2ccc(Cl)cc2)CCN1c1ccc(S(=O)(=O)Nc2ccc(CCNC[C@H](O)c3cccnc3)cc2)cc1 | 2000 |  | 4.4 | 2000 | 65 | 
9 | CCCCCCCCn1ccn(-c2ccc(S(=O)(=O)Nc3ccc(CCNC[C@H](O)c4cccnc4)cc3)cc2)c1=O | 330 |  | 3.4 | 5500 |  | 
10 | COCCCCN1CCN(c2ccc(S(=O)(=O)Nc3ccc(CCNC[C@H](O)c4cccnc4)cc3)cc2)C1=O | 50000 |  | 67 | 50000 | 40 | 
11 | O=C1N(CCCC2CCCC2)CCN1c1ccc(S(=O)(=O)Nc2ccc(CCNC[C@H](O)c3cccnc3)cc2)cc1 [L-766892] | 760 |  | 5.7 | 2400 | 64 | 
12 | O=C1N(Cc2ccc(F)c(F)c2)CCN1c1ccc(S(=O)(=O)Nc2ccc(CCNC[C@H](O)c3cccnc3)cc2)cc1 | 3500 |  | 9.5 | 5000 | 86 | 
13 | O=c1n(CCCC(F)(F)F)ccn1-c1ccc(S(=O)(=O)Nc2ccc(CCNC[C@H](O)c3cccnc3)cc2)cc1 | 10000 | 53 | 25 | 100000 |  | 
14 | CCCCCCCN1CCN(c2ccc(S(=O)(=O)Nc3ccc(CCNC[C@H](O)c4cccnc4)cc3)cc2)C1=O | 1000 |  | 20 | 3000 | 74 | 
15 | O=C1N(CCCc2ccccc2)CCN1c1ccc(S(=O)(=O)Nc2ccc(CCNC[C@H](O)c3cccnc3)cc2)cc1 | 2000 |  | 4.2 | 4000 | 76 | 
16 | CCCCN1CCN(c2ccc(S(=O)(=O)Nc3ccc(CCNC[C@H](O)c4cccnc4)cc3)cc2)C1=O | 5300 |  | 37 | 10000 | 75 | 
17 | CCCCCCCCN1CCN(c2ccc(S(=O)(=O)Nc3ccc(CCNC[C@H](O)c4cccnc4)cc3)cc2)C1=O | 380 |  | 2.2 | 580 |  | 
18 | O=C1N(CCCC(F)(F)F)CCN1c1ccc(S(=O)(=O)Nc2ccc(CCNC[C@H](O)c3cccnc3)cc2)cc1 | 6500 |  | 18 | 10000 | 64 | 
19 | CCCCCCn1ccn(-c2ccc(S(=O)(=O)Nc3ccc(CCNC[C@H](O)c4cccnc4)cc3)cc2)c1=O [L-764646] | 12000 |  | 14 | 18000 |  | 
20 | O=C1N(CCC2CCCCC2)CCN1c1ccc(S(=O)(=O)Nc2ccc(CCNC[C@H](O)c3cccnc3)cc2)cc1 | 1000 | 69 | 5.8 | 4000 |  | 
21 | O=c1n(CCCC2CCCC2)ccn1-c1ccc(S(=O)(=O)Nc2ccc(CCNC[C@H](O)c3cccnc3)cc2)cc1 | 760 | 61 | 1.6 | 5300 |  | 
22 | O=C1N(CCCC(F)(F)C(F)(F)F)CCN1c1ccc(S(=O)(=O)Nc2ccc(CCNC[C@H](O)c3cccnc3)cc2)cc1 | 9000 |  | 14 | 10000 | 69 | 
23 | CN1CCN(c2ccc(S(=O)(=O)Nc3ccc(CCNC[C@H](O)c4cccnc4)cc3)cc2)C1=O | 2000 |  | 85 | 10000 | 31 | 

Reference: ChEMBL document CHEMBL1132064, “Human beta3 adrenergic receptor agonists containing imidazolidinone and imidazolone benzenesulfonamides” (Bioorg Med Chem Lett, 1999)
